27 compounds from patent US20080051419A1, “AMINE DERIVATIVES USEFUL AS ANTICANCER AGENTS” (PFIZER INC., priority 2006, published 2008) can be followed below.

In this test the target is T1, Akt1 (Homo sapiens, UniProt P31749, S473D).
T1 construct: The version of Akt used in these studies lacks the pleckstrin homology (PH) domain
In words: Akt1 kinase assay, fluorescence polarization (IMAP). Format: biochemical. The method, then: The Akt1 kinase assay is based on the measurement of fluorescence polarization using IMAP technology (Molecular Devices Corporation #R8062). Two microliters of inhibitor compounds diluted to a concentration of 10 millimolar are added to column 2 of a polypropylene 96-well plate containing 98 microliters of 100% DMSO; the wells in columns 3-12 contain 60 microliters of 100% DMSO. The various test compounds are serially diluted 1:3 across the plate by pipetting 30 microliters of compounds into wells containing 60 microliters of 100% DMSO. Column 12 receives DMSO only and is used as a negative control for inhibition. The components of the wells are mixed and 15 microliters of each well are transferred to another 96-well plate already containing 60 microliters of reaction buffer (RB: 10 mM Tris-HCl, pH 7.5, 10 mM MgCl2, 0.1 mM EGTA, 0.01% Triton-X100 (Sigma #X-100), freshly added 1 mM DTT). After mixing, the […] reactions are assembled. First, five microliters of the above compound/reaction buffer mixture is transferred to the bottom of a 96-well black polystyrene reaction plate (Costar, #3694). Next, ten microliters of a solution containing 4 micromolar ATP and 40 nanomolar fluorescent-labeled Crosstide (Tamara-labeled […] peptide) are added. Then, 5 microliters (1.5 nanograms) of Akt protein in RB are added. The version of Akt used in these studies lacks the pleckstrin homology (PH) domain, and contains an aspartic acid residue in place of a serine residue in position 473 within the Akt1 hydrophobic motif. The Akt1 protein contains a polyhistidine tag at the amino terminus and is prephosphorylated on threonine at position 308 in order to activate latent kinase activity. Once the reaction components and inhibitors are assembled, the plates are gently tapped, covered with foil, and then incubated at ambient temperature for 30 minutes. IMAP beads (Molecular Devices) are then added (60 microliters of a 1:400 dilution of beads in RB). Plates are read on a Victor Plate Reader with the following settings: CW lamp filter: 544 nm, emission filter: 615 nm. Control values from wells lacking Akt protein are subtracted from the gross readings, and IC50 values are calculated using XLDA.
For orientation: In fluorescence polarisation assays a small probe gives low polarisation when free and higher when bound to something large.

Where [1] appears, read: Table 1, concentration bins, read-out: Concentration Range at which exemplary compounds of formula I inhibit Akt kinase activity.
Setting [2] is: average Akt kinase activity (IC50), read-out: Avg Akt kinase, μM (50% inhibition).
Setting [3] is: Table 3, read-out: Avg Akt kinase, μM (50% inhibition).

Read-outs that look alike come from different tables or passages of the source.

T1 sequence (P31749 118-480 S473D limits assumed, species assumed): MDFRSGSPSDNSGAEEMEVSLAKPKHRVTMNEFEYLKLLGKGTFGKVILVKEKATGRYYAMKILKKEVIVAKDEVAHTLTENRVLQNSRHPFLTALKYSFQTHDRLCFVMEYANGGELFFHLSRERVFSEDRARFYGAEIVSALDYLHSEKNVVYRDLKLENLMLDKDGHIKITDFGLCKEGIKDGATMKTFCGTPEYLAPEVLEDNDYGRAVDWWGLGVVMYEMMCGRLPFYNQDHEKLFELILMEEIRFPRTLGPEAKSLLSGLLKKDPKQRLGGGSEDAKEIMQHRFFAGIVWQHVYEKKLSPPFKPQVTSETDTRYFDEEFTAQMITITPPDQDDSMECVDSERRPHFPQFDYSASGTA

`N[C@]1(CNC(=O)c2cccc(F)c2)CCN(c2ncnc3[nH]cc(Cl)c23)C1` [Example 104, N-{[(3S)-3-amino-1-(5-chloro-7H-pyrrolo[2,3-d]pyrimidin-4-yl)pyrrolidin-3-yl]methyl}-3-fluorobenzamide]: the IC50 runs as follows: under setting [1], 0.00251 to 0.01 µM; under setting [2], 0.00674 µM. For `N[C@]1(CNC(=O)c2cccc(F)c2F)CCN(c2ncnc3[nH]cc(Cl)c23)C1` [Example 81, N-{[(3S)-3-amino-1-(5-chloro-7H-pyrrolo[2,3-d]pyrimidin-4-yl)pyrrolidin-3-yl]methyl}-2,3-difluorobenzamide], in that order: 0.00251 to 0.01 µM and 0.00346 µM.

For `CCc1c[nH]c2ncnc(N3CC[C@](N)(CNC(=O)c4cccc(F)c4F)C3)c12` [Example 89], the IC50 is 0.00251 to 0.01 µM under setting [1] and 0.00278 µM under setting [2]. For the compound `CCc1c[nH]c2ncnc(N3CCC(N)(COc4cccc(C(F)(F)F)c4)C3)c12` (centres unmarked) [Example 64], the IC50 is, setting by setting: under setting [1], 0.0101 to 0.1 µM; (Table 4, read-out: Avg Akt kinase, μM (50% inhibition)) 0.0215 µM. Turning to `Cc1c[nH]c2ncnc(N3CCC(N)(CNS(=O)(=O)c4ccccc4)C3)c12` (centres unmarked) [Example 77, N-{[3-amino-1-(5-methyl-7H-pyrrolo[2,3-d]pyrimidin-4-yl)pyrrolidin-3-yl]methyl}benzenesulfonamide], the IC50 was 0.101 to 10 µM under setting [1] and 0.177 µM under setting [2].

With `Cc1c(F)cccc1NCC1(N)CCN(c2ncnc3[nH]cc(C)c23)C1` (centres unmarked) [Example 28, 3-{[(3-fluoro-2-methylphenyl)amino]methyl}-1-(5-methyl-7H-pyrrolo[2,3-d]pyrimidin-4-yl)pyrrolidin-3-amine], the IC50 is, setting by setting: under setting [1], 0.00251 to 0.01 µM; under setting [3], 0.00952 µM. Turning to `N[C@]1(CNC(=O)c2cccc(Cl)c2)CCN(c2ncnc3[nH]cc(Cl)c23)C1` [Example 112, N-{[(3S)-3-amino-1-(5-chloro-7H-pyrrolo[2,3-d]pyrimidin-4-yl)pyrrolidin-3-yl]methyl}-3-chlorobenzamide], the IC50 runs as follows: under setting [1], 0.00251 to 0.01 µM; under setting [2], 0.00376 µM. Regarding `Cc1c[nH]c2ncnc(N3CCC(N)(CNc4ccccc4S(=O)(=O)N4CC[C@@H](F)C4)C3)c12` (stereo partly drawn) [Example 15, 3-{[(2-{[(3R)-3-fluoropyrrolidin-1-yl]sulfonyl}phenyl)amino]methyl}-1-(5-methyl-7H-pyrrolo[2,3-d]pyrimidin-4-yl)pyrrolidin-3-amine], the IC50 by setting is: under setting [1], 0.0101 to 0.1 µM; under setting [3], 0.0154 µM. In the case of `Cc1c[nH]c2ncnc(N3CCC(N)(CNc4cccc(Cl)c4F)C3)c12` (centres unmarked) [Example 21, 3-{[(3-chloro-2-fluorophenyl)amino]methyl}-1-(5-methyl-7H-pyrrolo[2,3-d]pyrimidin-4-yl)pyrrolidin-3-amine], the IC50 under setting [1] lay within 0.00251 to 0.01 µM and the IC50 under setting [3] was 0.00553 µM. Take `Cc1c[nH]c2ncnc(N3CCC(N)(CCc4cccc(C(F)(F)F)c4)C3)c12` (centres unmarked) [Example 67, 1-(5-methyl-7H-pyrrolo[2,3-d]pyrimidin-4-yl)-3-{2-[3-(trifluoromethyl) -phenyl]ethyl}pyrrolidin-3-amine]: the IC50 under setting [1] is 0.101 to 10 µM and the IC50 under setting [2] was 0.126 µM. Consider `CCc1c[nH]c2ncnc(N3CC[C@@](N)(CNC(=O)c4cc(C)on4)C3)c12` [Example 91], for which the IC50 runs as follows: under setting [1], 0.00251 to 0.01 µM; under setting [2], 0.00392 µM. For `CCc1c[nH]c2ncnc(N3CC[C@](N)(CNC(=O)c4ccc(Cl)cc4F)C3)c12` [Example 103, N-{[(3S)-3-amino-1-(5-ethyl-7H-pyrrolo[2,3-d]pyrimidin-4-yl)pyrrolidin-3-yl]methyl}-4-chloro-2-fluorobenzamide], the IC50 under setting [1] was 0.00251 to 0.01 µM and the IC50 under setting [2] turned out to be 0.00487 µM.

On to `Cc1c[nH]c2ncnc(N3CC[C@](N)(CNc4cccc(C(F)(F)F)c4F)C3)c12` [Example 36, (3S)-3-({[2-fluoro-3-(trifluoromethyl)phenyl]amino}-methyl)-1-(5-methyl-7H-pyrrolo[2,3-d]pyrimidin-4-yl)pyrrolidin-3-amine], for which the IC50 reads like this: under setting [1], 0.00025 to 0.0025 µM; under setting [3], 0.002 µM.

For the compound `N[C@]1(CNC(=O)c2ccc(Cl)c(F)c2)CCN(c2ncnc3[nH]cc(Cl)c23)C1` [Example 83, N-{[(3S)-3-amino-1-(5-chloro-7H-pyrrolo[2,3-d]pyrimidin-4-yl)pyrrolidin-3-yl]methyl}-4-chloro-3-fluorobenzamide], the IC50 was 0.00251 to 0.01 µM under setting [1] and 0.00915 µM under setting [2]. On to `Cc1c[nH]c2ncnc(N3CCC(N)(CN(C)c4ccccc4)C3)c12` (centres unmarked) [Example 48, 3-{[methyl(phenyl)amino]methyl}-1-(5-methyl-7H-pyrrolo[2,3-d]pyrimidin-4-yl)pyrrolidin-3-amine], for which the IC50 under setting [1] was in the range of 0.101 to 10 µM and the IC50 under setting [3] is 0.12 µM.

As to `Cc1c[nH]c2ncnc(N3CC[C@](N)(CNC(=O)c4ccc(Cl)cc4)C3)c12` [Example 74, (S)—N-((3-amino-1-(5-methyl-7H-pyrrolo[2,3-d]pyrimidin-4-yl)pyrrolidin-3-yl)methyl)-4-chlorobenzamide], the IC50 is, setting by setting: under setting [1], 0.0101 to 0.1 µM; under setting [2], 0.0114 µM. Taken in the same sequence, the figures for `Cc1c[nH]c2ncnc(N3CC[C@](N)(CNC(=O)c4ccccc4)C3)c12` [Example 109, N-{[(3S)-3-amino-1-(5-methyl-7H-pyrrolo[2,3-d]pyrimidin-4-yl)pyrrolidin-3-yl]methyl}benzamide] were 0.00251 to 0.01 µM and 0.00586 µM. Regarding “N-{[3-amino-1-(5-methyl-7H-pyrrolo[2,3-d]pyrimidin-4-yl)pyrrolidin-3-yl]methyl}pyrimidin-2-amine [Example 58]”, under setting [3], the IC50 worked out at 0.123 µM. Turning to `Cc1c[nH]c2ncnc(N3CCC(N)(CN(CCN(C)C)C(=O)Nc4ccccc4)C3)c12` (centres unmarked) [Example 195, 1-{[3-amino-1-(5-methyl-7H-pyrrolo[2,3-d]pyrimidin-4-yl)pyrrolidin-3-yl]methyl}-1-[2-(dimethylamino)ethyl]-3-phenylurea], the IC50 is, setting by setting: under setting [1], 0.101 to 10 µM; (read-out: Avg Akt kinase, μM (50% inhibition)) 0.141 µM.

`CCc1c[nH]c2ncnc(N3CC[C@](N)(CNC(=O)c4cccc(F)c4Cl)C3)c12` [Example 125, N-{[(3S)-3-amino-1-(5-ethyl-7H-pyrrolo[2,3-d]pyrimidin-4-yl)pyrrolidin-3-yl]methyl}-2-chloro-3-fluorobenzamide]: the IC50 was 0.0101 to 0.1 µM under setting [1] and 0.0139 µM under setting [2].

Take `COC(=O)c1ccccc1NCC1(N)CCN(c2ncnc3[nH]nc(C)c23)C1` (centres unmarked) [Example 5, 2-{[3-Amino-1-(3-methyl-1H-pyrazolo[3,4-d]pyrimidin-4-yl)-pyrrolidin-3-ylmethyl]-amino}-benzoic acid methyl ester]: the IC50 is, setting by setting: under setting [1], 0.101 to 10 µM; under setting [3], 0.394 µM. As for `N[C@]1(CNC(=O)c2ccc(F)cc2)CCN(c2ncnc3[nH]cc(Cl)c23)C1` [Example 78, N-{[(3S)-3-amino-1-(5-chloro-7H-pyrrolo[2,3-d]pyrimidin-4-yl)pyrrolidin-3-yl]methyl}-4-fluorobenzamide], the IC50 was 0.00251 to 0.01 µM under setting [1] and 0.00267 µM under setting [2].

For `N#Cc1c[nH]c2ncnc(N3CCC(N)(CNc4cccc5c4CCCC5)C3)c12` (centres unmarked) [Example 38, 4-{3-amino-3-[(5,6,7,8-tetrahydronaphthalen-1-ylamino)methyl]pyrrolidin-1-yl}-7H-pyrrolo[2,3-d]pyrimidine-5-carbonitrile], the IC50 runs as follows: under setting [1], 0.00251 to 0.01 µM; under setting [3], 0.00371 µM. Turning to `Cc1c[nH]c2ncnc(N3CCC(N)(CNc4ccc(C#N)c(Cl)c4)C3)c12` (centres unmarked) [Example 22, 4-({[3-amino-1-(5-methyl-7H-pyrrolo[2,3-d]pyrimidin-4-yl)pyrrolidin-3-yl]methyl}amino)-2-chlorobenzonitrile], the IC50 by setting is: under setting [1], 0.0101 to 0.1 µM; under setting [3], 0.0161 µM. Taken in the same sequence, the figures for `Cc1ccn2ncnc(N3CCC(N)(CNc4cccc(Cl)c4Cl)C3)c12` (centres unmarked) [Example 10, 3-{[(2,3-dichlorophenyl)amino]methyl}-1-(5-methylpyrrolo[2,1-f][1,2,4]triazin-4-yl)pyrrolidin-3-amine] were 0.00251 to 0.01 µM and 0.003 µM. Take `Cc1c[nH]c2ncnc(N3CCC(N)(CNc4cccc(Cl)c4Cl)C3)c12` (centres unmarked) [Example 26, 3-{[(2,3-dichlorophenyl)amino]methyl}-1-(5-methyl-7H-pyrrolo[2,3-d]pyrimidin-4-yl)pyrrolidin-3-amine]: the IC50 is 0.00025 to 0.0025 µM under setting [1] and 0.002 µM under setting [3]. In the case of `Cc1c[nH]c2ncnc(N3CC[C@](N)(CNC(=O)c4cccc(F)c4Cl)C3)c12` [Example 123, N-{[(3S)-3-amino-1-(5-methyl-7H-pyrrolo[2,3-d]pyrimidin-4-yl)pyrrolidin-3-yl]methyl}-2-chloro-3-fluorobenzamide], the IC50 is, setting by setting: under setting [1], 0.00251 to 0.01 µM; under setting [2], 0.00526 µM.
